From patent US12528761B2, “Thyromimetics” (Autobahn Therapeutics, Inc., priority 2020, dated 2026)

What follows are compounds tested against T1, recombinant human FAAH (rhFAAH) (Homo sapiens, UniProt O00519) (assay: FAAH substrate evaluation (formation of acid metabolite, LC-MS/MS)). Settings: 0.5 ng/μL rhFAAH, 1 μM test compound, pH 8.0, room temperature, 0-60 minutes.
T1 construct: purchased Cayman Chemical (Ann Arbor, MI, USA)
T1 sequence (O00519 1-579): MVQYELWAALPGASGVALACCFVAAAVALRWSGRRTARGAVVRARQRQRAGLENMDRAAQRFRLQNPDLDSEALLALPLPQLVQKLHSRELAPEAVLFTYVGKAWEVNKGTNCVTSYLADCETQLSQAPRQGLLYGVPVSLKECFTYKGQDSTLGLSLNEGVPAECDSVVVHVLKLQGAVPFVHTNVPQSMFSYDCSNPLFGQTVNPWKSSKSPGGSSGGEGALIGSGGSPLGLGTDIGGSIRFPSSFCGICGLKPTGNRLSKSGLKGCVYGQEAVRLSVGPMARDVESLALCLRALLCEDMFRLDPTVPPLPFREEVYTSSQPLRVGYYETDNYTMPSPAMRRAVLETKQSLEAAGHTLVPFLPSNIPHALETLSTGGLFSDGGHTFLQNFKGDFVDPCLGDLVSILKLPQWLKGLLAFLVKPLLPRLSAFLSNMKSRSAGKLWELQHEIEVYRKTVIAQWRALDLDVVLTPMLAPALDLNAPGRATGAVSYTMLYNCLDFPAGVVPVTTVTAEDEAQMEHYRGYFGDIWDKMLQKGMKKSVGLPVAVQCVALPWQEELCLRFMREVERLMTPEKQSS
Type: biochemical
Set-up: key: A: ke is equal to or less than 1.0; B: ke is greater than 1.0 and less than or equal to 2.5; C: ke is greater than 2.5; NC: no conversion
Method: Purified recombinant human FAAH (rhFAAH) was purchased from Cayman Chemical (Ann Arbor, MI, USA). The total volume for each incubation was 400 μL containing a final 0.5 ng/μL rhFAAH, 1 μM test compound, 1.25% ethanol or 1 μM PF-3845 (FAAH inhibitor), and 0.1% bovine serum albumin in Tris-EDTA buffer at pH 8.0). The positive control was LL-341001. The incubation was conducted at the room temperature. At 0, 5, 15, 30 and 60 minutes, an aliquot of 30 μL reaction mixtures was removed and mixed with 300 μL acetonitrile containing 5 ng/mL terfenadine and 10 ng/mL tolbutamide as internal standards to quench the reaction. The resulting mixture was centrifuged at 4000 rpm, 4° C. for 15 minutes, and 100 μL supernatant was ready for LC-MS/MS analysis to measure the formation of acid metabolite.
Acquity Ultra Performance LC system from Waters was used for sample analysis. The chromatography was performed on a reverse phase Kinetex 2.6 μm C18 column, 2.1×30 mm, 100 Å. The mobile phase A comprised of 0.1% formic acid in water and mobile phase B comprised of 0.1% formic acid in acetonitrile with a 2-min run time at the flow rate of 0.8 mL/min for the acid metabolite from positive control or a 1.5 min run time at the flow rate of 0.9 mL/min for the acid metabolite of test compounds. The mass spectrometer (API-5500 and API Q Trap 4000 Applied Biosystems/MDS SCIEX Instruments, Framingham, MA, USA) was operated under ESI positive or negative ion MRM mode.
The formation of acid metabolite was monitored and quantified using one calibration point of 1 μM. The observed rate constant (ke) for the acid metabolite formation was calculated by plotting the metabolite concentration versus time of incubation with the slope being ke and is shown in Table 4.

Row | ke, observed rate constant for the acid metabolite formation | SMILES
1 | C (ke is greater than 2.5) | CNC(=O)CSCc1cc(Cl)c(Cc2ccc(O)c(C(C)C)c2F)c(Cl)c1 [Compound 147, 2-((3,5-dichloro-4-(2-fluoro-4-hydroxy-3-isopropylbenzyl)benzyl)thio)-N-methylacetamide]
2 | A (ke is equal to or less than 1.0) | CNC(=O)CCc1cc(Cl)c(Cc2ccc(O)c(C(C)C)c2)c(Cl)c1 [Compound 12, 3-(3,5-dichloro-4-(4-hydroxy-3-isopropylbenzyl)phenyl)-N-methylpropanamide]
3 | NC | CNC(=O)CN(C)c1cc(Cl)c(Cc2ccc(O)c(C(C)C)c2)c(Cl)c1 [Compound 149, 2-((3,5-dichloro-4-(4-hydroxy-3-isopropylbenzyl)phenyl)(methyl)amino)-N-methylacetamide]
4 | C (ke is greater than 2.5) | CNC(=O)CSc1cc(C)c(Cc2ccc(O)c(C(C)C)c2F)c(Cl)c1 [Compound 233, 2-((3-chloro-4-(2-fluoro-4-hydroxy-3-isopropylbenzyl)-5-methylphenyl)thio)-N-methylacetamide]
5 | NC | CNC(=O)CNc1cc(C)c(Cc2ccc(O)c(C(C)C)c2)c(Cl)c1 [Compound 240, 2-((3-chloro-4-(4-hydroxy-3-isopropylbenzyl)-5-methylphenyl)amino)-N-methylacetamide]
6 | A (ke is equal to or less than 1.0) | CC(C)c1c(O)ccc(Cc2c(Cl)cc(NCC(=O)NCCCF)c(F)c2Cl)c1F [Compound 155, 2-((3,5-dichloro-2-fluoro-4-(2-fluoro-4-hydroxy-3-isopropylbenzyl)phenyl)amino)-N-(3-fluoropropyl)acetamide]
7 | NC | Cc1cc(CSCC(=O)NC2CCCCC2)cc(Cl)c1Cc1ccc(O)c(C(C)C)c1 [Compound 131, 2-((3-chloro-4-(4-hydroxy-3-isopropylbenzyl)-5-methylbenzyl)thio)-N-cyclohexylacetamide]
8 | C (ke is greater than 2.5) | CC(C)c1cc(Cc2c(Cl)cc(SCC(N)=O)cc2Cl)ccc1O [Compound 179, 2-((3,5-dichloro-4-(4-hydroxy-3-isopropylbenzyl)phenyl)thio)acetamide]
9 | NC | CC(C)c1cc(Cc2c(Cl)cc(SCC(=O)NC34CC(C3)C4)cc2Cl)ccc1O [Compound 178, N-(bicyclo[1.1.1]pentan-1-yl)-2-((3,5-dichloro-4-(4-hydroxy-3-isopropylbenzyl)phenyl)thio)acetamide]
10 | A (ke is equal to or less than 1.0) | CC(C)c1c(O)ccc(Cc2c(Cl)cc(NCC(=O)N[C@@H]3C[C@@H]3F)c(F)c2Cl)c1F [Compound 156, 2-((3,5-dichloro-2-fluoro-4-(2-fluoro-4-hydroxy-3-isopropylbenzyl)phenyl)amino)-N-((1R,2S)-2-fluorocyclopropyl)acetamide]
11 | A (ke is equal to or less than 1.0) | CNC(=O)CNc1cc(Cl)c(Cc2ccc(O)c(C(C)C)c2F)c(Cl)c1F [Compound 79, 2-((3,5-dichloro-2-fluoro-4-(2-fluoro-4-hydroxy-3-isopropylbenzyl)phenyl)amino)-N-methylacetamide]
12 | NC | CNC(=O)Cc1cc(Cl)c(Cc2ccc(O)c(C(C)C)c2)c(Cl)c1 [Compound 7, 2-(3,5-dichloro-4-(4-hydroxy-3-isopropylbenzyl)phenyl)-N-methylacetamide]
13 | A (ke is equal to or less than 1.0) | CNC(=O)/C(C)=C/c1cc(Cl)c(Cc2ccc(O)c(C(C)C)c2)c(C)c1F [Compound 237, (E)-3-(5-chloro-2-fluoro-4-(4-hydroxy-3-isopropylbenzyl)-3-methylphenyl)-N,2-dimethylacrylamide]
14 | C (ke is greater than 2.5) | CC(C)c1cc(Cc2c(Cl)cc(SCC(=O)Nc3ccnnc3)cc2Cl)ccc1O [Compound 173, 2-((3,5-dichloro-4-(4-hydroxy-3-isopropylbenzyl)phenyl)thio)-N-(pyridazin-4-yl)acetamide]
15 | A (ke is equal to or less than 1.0) | CC(C)c1c(O)ccc(Cc2c(Cl)cc(NCC(N)=O)c(F)c2Cl)c1F [Compound 163, 2-((3,5-dichloro-2-fluoro-4-(2-fluoro-4-hydroxy-3-isopropylbenzyl)phenyl)amino)acetamide]
16 | A (ke is equal to or less than 1.0) | CNC(=O)CSCc1cc(Cl)c(Cc2ccc(O)c(C(C)C)c2)c(C)c1F [Compound 219, 2-((5-chloro-2-fluoro-4-(4-hydroxy-3-isopropylbenzyl)-3-methylbenzyl)thio)-N-methylacetamide]
17 | A (ke is equal to or less than 1.0) | CCNC(=O)CSc1cc(Cl)c(Cc2ccc(O)c(C(C)C)c2)c(Cl)c1 [Compound 186, 2-((3,5-dichloro-4-(4-hydroxy-3-isopropylbenzyl)phenyl)thio)-N-ethylacetamide]
18 | A (ke is equal to or less than 1.0) | CON(C)C(=O)/C(C)=C/c1cc(Cl)c(Cc2ccc(O)c(C(C)C)c2F)c(Cl)c1 [Compound 122, (E)-3-(3,5-dichloro-4-(2-fluoro-4-hydroxy-3-isopropylbenzyl)phenyl)-N-methoxy-N,2-dimethylacrylamide]
19 | C (ke is greater than 2.5) | Cc1cc(SCC(N)=O)cc(Cl)c1Cc1ccc(O)c(C(C)C)c1F [Compound 234, 2-((3-chloro-4-(2-fluoro-4-hydroxy-3-isopropylbenzyl)-5-methylphenyl)thio)acetamide]

Row | SMILES | ke, observed rate constant for the acid metabolite formation
20 | Cc1noc(NC(=O)CSc2cc(Cl)c(Cc3ccc(O)c(C(C)C)c3)c(Cl)c2)c1C [Compound 168, 2-((3,5-dichloro-4-(4-hydroxy-3-isopropylbenzyl)phenyl)thio)-N-(3,4-dimethylisoxazol-5-yl)acetamide] | B (ke is greater than 1.0 and less than or equal to 2.5)
21 | CNC(=O)CSc1cc(C)c(Cc2ccc(O)c(C(C)C)c2)c(Cl)c1F [Compound 218, 2-((3-chloro-2-fluoro-4-(4-hydroxy-3-isopropylbenzyl)-5-methylphenyl)thio)-N-methylacetamide] | B (ke is greater than 1.0 and less than or equal to 2.5)
22 | CNC(=O)CSc1cc(C)c(Cc2ccc(O)c(C(C)C)c2)c(Cl)c1 [Compound 242, 2-((3-chloro-4-(4-hydroxy-3-isopropylbenzyl)-5-methylphenyl)thio)-N-methylacetamide] | B (ke is greater than 1.0 and less than or equal to 2.5)
23 | COc1ccc(NC(=O)CNc2cc(Cl)c(Cc3ccc(O)c(C(C)C)c3F)c(Cl)c2F)cn1 [Compound 158, 2-((3,5-dichloro-2-fluoro-4-(2-fluoro-4-hydroxy-3-isopropylbenzyl)phenyl)amino)-N-(6-methoxypyridin-3-yl)acetamide] | B (ke is greater than 1.0 and less than or equal to 2.5)
24 | CNC(=O)CSc1cc(Cl)c(Cc2ccc(O)c(C(C)C)c2)c(Cl)c1F [Compound 190, 2-((3,5-dichloro-2-fluoro-4-(4-hydroxy-3-isopropylbenzyl)phenyl)thio)-N-methylacetamide] | B (ke is greater than 1.0 and less than or equal to 2.5)
25 | CC(C)c1cc(Cc2c(Cl)cc(SCC(=O)Nc3cnccn3)cc2Cl)ccc1O [Compound 171, 2-((3,5-dichloro-4-(4-hydroxy-3-isopropylbenzyl)phenyl)thio)-N-(pyrazin-2-yl)acetamide] | B (ke is greater than 1.0 and less than or equal to 2.5)
